Measurements taken from patent publication US12084680B2, “Methods for efficient derivation of human motor neurons from diverse spinal regions” (Wisconsin Alumni Research Foundation, priority 2016, dated 2024).

Assays:
[1] = test system: GLI1, GLI2, GLI3; assay: qPCR of GLI transcription factors in day 6 cultures; type: cell-based, human; conditions: 6 μM CHIR maintained during RA and PM/SHH exposure, day 6, versus 0 μM CHIR
Procedure: To begin, we sequentially differentiated H9 hESCs in E6 media for 1 day, and FGF8b (200 ng/mL) for 1 day, and FGF8b and CHIR (3 μM) for 2 days to generate cervical neuromesoderm (FIGS. 5A-5B). Then, we screened the effects of CHIR, PM, and SHH treatment on NKX6.1^+/PAX6^+/OLIG2^+ motor neuron progenitor induction while transitioning to media containing 1 μM RA (FIGS. 5A-5D). Prior to the addition of RA, NKX6.1 was expressed in the cervical neuromesodermal state at day 4 (80±18% NKX6.1^+; data not shown), likely due to the CHIR-induced Wnt/β-catenin signaling (FIGS. 4A-4H). Transitioning the neuromesodermal progenitors to RA-containing media for 2 days induced HOXB4^+/HOXC6^+/HOXC9^−/HOXD10^−/PAX6^+ cervical neuroectoderm in all conditions (FIGS. 5B-5C), as expected. However, without co-activation of SHH signaling by PM or SHH, NKX6.1 expression was quickly lost by day 6 (97±1% PAX6^+, 17±3% NKX6.1^+) (FIG. 5C). […] To bolster this claim, we also analyzed the abundance of full-length GLI3 versus its truncated repressor form by western blot. […] Thus, Wnt/β-catenin signaling is necessary to induce ventral identity, but its continuous activation during OLIG2 induction by SHH signaling is detrimental to motor neuron differentiation, possibly due to activation of the GLI3 repressor.
Thoracic identity was reached after an additional 24 h. Then, to reach the lumbosacral level, cells were given 30 ng/ml GDF11 and 1 μM DM for an additional 48 h. For neuroectoderm induction and generation of OLIG2^+ progenitors, FGF8b was removed at the designated time points and the concentration of CHIR was increased for 6 h as described in the text, followed by a transition to media containing RA, PM, and SHH for a period of 48 h. […]

[2] = test system: GLI3; assay: Western blot of full-length versus truncated repressor GLI3; type: cell-based, human; conditions: cultures maintained in 3 and 6 μM CHIR during PM/SHH exposure, day 6
Procedure: To begin, we sequentially differentiated H9 hESCs in E6 media for 1 day, and FGF8b (200 ng/mL) for 1 day, and FGF8b and CHIR (3 μM) for 2 days to generate cervical neuromesoderm (FIGS. 5A-5B). Then, we screened the effects of CHIR, PM, and SHH treatment on NKX6.1^+/PAX6^+/OLIG2^+ motor neuron progenitor induction while transitioning to media containing 1 μM RA (FIGS. 5A-5D). Prior to the addition of RA, NKX6.1 was expressed in the cervical neuromesodermal state at day 4 (80±18% NKX6.1^+; data not shown), likely due to the CHIR-induced Wnt/β-catenin signaling (FIGS. 4A-4H). Transitioning the neuromesodermal progenitors to RA-containing media for 2 days induced HOXB4^+/HOXC6^+/HOXC9^−/HOXD10^−/PAX6^+ cervical neuroectoderm in all conditions (FIGS. 5B-5C), as expected. However, without co-activation of SHH signaling by PM or SHH, NKX6.1 expression was quickly lost by day 6 (97±1% PAX6^+, 17±3% NKX6.1^+) (FIG. 5C). […] To bolster this claim, we also analyzed the abundance of full-length GLI3 versus its truncated repressor form by western blot. […]
Cells were washed with cold PBS, harvested with accutase, and pelleted by centrifugation. […] Immunostained bands were detected using the SuperSignal West Pico Chemiluminescent Substrate kit (Thermo Fisher Scientific). […]

Q: Which “decrease in GLI1 expression (qPCR)” value [1] does the source give for `Cc1c[nH]c(-c2cnc(NCCNc3ccc(C#N)cn3)nc2-c2ccc(Cl)cc2Cl)n1` [CHIR, CHIR99021] here?
A: > 8 fold

Q: And the “decrease in GLI2 expression (qPCR)” value [1]?
A: > 4 fold

Q: What about the “increase in GLI3 expression (qPCR)” value [1] of the same compound?
A: ~2 fold

Q: And the “GLI3 truncated repressor form level (western blot)” value [2]?
A: increased levels of the GLI3 truncated repressor form
